The source of these data is patent publication US7005124B2, “Dendritic-antineoplastic drug delivery system” (priority 1997, dated 2006).

For test [1], the system named is B16F10. Kind of test: Cell cytotoxicity of dendrimer-platinate, MTT. Conditions: Pt-equiv. The format is cell-based, murine. On the procedure:
(§1) All cellular growth and cytotoxic incubations were carried out in a cell incubator at 37° C. and 5% CO2 atmosphere.
(§2) Cell density was assessed using an improved neurenbrow hemocytometer (Sigma). The cells were washed with PBS twice and fresh RPMI media (supplemented with FCS) added, the cells were then seeded in a microtitre plate. The cells were left for 24 hours to recover and re-adhere. If cells were in a suspension they were spun at 1000×g and resuspended in fresh media.
(§3) Some cells were left in media only to act as cellular controls. The cells were left in the incubator for 72 hours, and checked occasionally for yeast or bacterial contamination. Five hours prior to the incubation time end point, at 67 hours, 20 μl of MTT was added and the cells left for the final 5 hours. Then cellular media was removed and 100 μl of optical grade DMSO (Sigma) was added and the MTT crystals dissolved.

Another test has as its system CCRF-CEM. Put plainly: Cell cytotoxicity of dendrimer-platinate, MTT. The format is cell-based, human. Conditions: Pt-equiv. On the procedure: as §1, §2, §3
For another test, the system named is Cor L23. Kind of test: Cell cytotoxicity of dendrimer-platinate, MTT. The format is cell-based, human. Conditions: Pt-equiv. On the procedure:
as §1, §2, §3

In test [2] the test system is B16F10. Put plainly: Activity against B16F10 I.P., I.P. injection. The settings on record: dose 5 Pt-equiv mg/Kg, day 1. The format is in vivo, C57 mice.
Description: (§4) Alternatively drug was administered I.V. to mice bearing S.C. implanted B16F10 when the tumor reached palpable size (50–100 mm^2). Animal weight, tumor size and animal survival were monitored (UK guidelines for animal experiments involving neoplasia were followed.)
(§5) Li 210 or B16F10 cells were injected at a cell density into a mouse (DBA2 or C57 respectively, 25 g) at a cell density of 1×10^5 (0.9% saline solution) into the intraperitoneal (I.P. 100 μl) cavity. […] The mouse body weight and general toxicity was also monitored according to UK guidelines in the use of animals used in neoplasia studies. At the end point the gross morphology of the organs was noted.
The test system of another test is L1210. Conditions: L1210 ip.

SMILES strings stand for the structures. Read-outs that look alike come from different tables or passages of the source.

Description for L1210: as §4, §5

On to `N.N.[Cl][Pt][Cl]` [Cisplatin, cis-diamminedichloroplatinum], for which the “IC50 Values” in the test with B16F10 [1] was 9 µg/mL; in the test on CCRF-CEM, 5 µg/mL; with Cor L23 it was 1 µg/mL. Besides, the T/C in the test with B16F10 [2] was found to be 89; in the test with L1210 (dose 2 Pt-equiv mg/Kg I.P. days 1, 2, 3) it was 171; in the test on L1210 (dose 3 Pt-equiv mg/Kg I.P. days 1, 2, 3), 64.
